Results published in PMC5824342 (Bioconjugate Chemistry, 2017).

Legend:
[1] = target: GRPR (Homo sapiens, UniProt P30550); assay: Competitive binding assay, displacement of 125I-[Tyr4]BBN on PC-3 cells
[2] = LC-MS, previous study of the authors; cited from earlier work

GRPR, sequence (P30550 whole entry): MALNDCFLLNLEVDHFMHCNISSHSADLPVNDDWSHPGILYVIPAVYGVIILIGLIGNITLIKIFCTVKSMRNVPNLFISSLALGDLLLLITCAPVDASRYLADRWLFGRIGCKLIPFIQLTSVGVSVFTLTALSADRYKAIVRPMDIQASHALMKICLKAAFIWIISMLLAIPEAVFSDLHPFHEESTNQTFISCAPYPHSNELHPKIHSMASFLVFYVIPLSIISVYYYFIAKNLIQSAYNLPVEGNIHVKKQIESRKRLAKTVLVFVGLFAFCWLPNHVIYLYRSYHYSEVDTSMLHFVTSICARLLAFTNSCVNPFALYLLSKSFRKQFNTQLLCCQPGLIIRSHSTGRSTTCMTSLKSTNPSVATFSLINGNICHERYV

| SMILES | IC50 [1] | t1/2 of degradation during incubation in rat hepatocytes [2] |
| --- | --- | --- |
| CSCC[C@H](NC(=O)[C@H](CC(C)C)NC(=O)[C@H](Cc1c[nH]cn1)NC(=O)CNC(=O)[C@@H](NC(=O)[C@H](C)NC(=O)[C@H](Cc1c[nH]c2ccccc12)NC(=O)[C@H](CCC(N)=O)NC(=O)CCCCCNC(=O)CN1CCN(CC(=O)O)CCN(CC(=O)O)CC1)C(C)C)C(N)=O [NOTA–Aca–BBN7–14] | 1.8 ± 0.67 nM |  |
| CSCC[C@H](NC(=O)[C@H](CC(C)C)NC(=O)[C@H](Cc1cnc[nH]1)NC(=O)CNC(=O)[C@@H](NC(=O)[C@H](C)NC(=O)[C@H](Cc1c[nH]c2ccccc12)NC(=O)[C@@H](N)CCC(N)=O)C(C)C)C(N)=O [BBN7–14] |  | 4 min |
